# Laboratory results taken from BindingDB's records for doi:10.1007/s10822-022-00478-x (Roche Innovation Center Basel, F. Hoffmann-La Roche Ltd., 2022).
# Target: cAMP and cAMP-inhibited cGMP 3',5'-cyclic phosphodiesterase 10A (Homo sapiens, UniProt Q9Y233)
# Assay: PDE10A assay
# Method in brief: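 Human PDE10A (2 ng/well) preincubated 15 min RT with compound in HEPES pH 7.5, 10 mM MgCl2, BSA, then reacted 15 min with 50 nM [3H]cGMP/cGMP substrate. Stopped with Y-Si SPA beads; bound radioactivity counted, IC50 from four-parameter logistic, pIC50 = −log10(IC50).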
row,IC50 [nM],SMILES
1,563,"Cc1cnccc1NC(=O)c1ccc2cc(-c3ccccc3)nn2c1 [Roche-Dataset for PDE10A, Compound 448]"
2,46,"O=C(NCCN1CCCc2ccccc21)c1nc(C2CC2)cnc1Nc1cncnc1 [Roche-Dataset for PDE10A, Compound 449]"
3,0.87,"CN(c1nc2cc(NC(=O)c3c(C(=O)N4CCC4)cnn3C)ccn2n1)C1CC1 [Roche-Dataset for PDE10A, Compound 450]"
4,574,"O=C(NCCN1CCc2ccccc2C1=O)c1nc(C2CC2)cnc1Nc1cncnc1 [Roche-Dataset for PDE10A, Compound 451]"
5,14,"CNC(=O)c1cc2[nH]c(-c3ccccc3)nc2cc1NC(=O)c1ccnn1C [Roche-Dataset for PDE10A, Compound 452]"
6,195,"CNC(=O)c1cc2[nH]c(-c3ccccc3)nc2cc1NC(=O)c1c(C(=O)N2CCOCC2)cnn1C [Roche-Dataset for PDE10A, Compound 453]"
7,76,"O=C(Nc1ccn2nc(-c3ccccc3)nc2c1)c1cc(Cl)ccn1 [Roche-Dataset for PDE10A, Compound 454]"
8,748,"Cc1ncc(C)n2nc(CCc3nc(C)n(-c4ccccc4)n3)nc12 [Roche-Dataset for PDE10A, Compound 456]"
9,2410,"Cn1ncc(C(=O)N2CCOCC2)c1C(=O)N[C@@H]1CCn2cc(-c3ccccc3Cl)nc2C1 [Roche-Dataset for PDE10A, Compound 457]"
10,66,"Cn1ncc(C(=O)O)c1C(=O)Nc1ccn2nc(-c3cccnc3F)nc2c1 [Roche-Dataset for PDE10A, Compound 458]"
11,3.12,"CN(C)c1nc2cc(NC(=O)c3c(C(=O)N4CCC4)cnn3C)ccc2s1 [Roche-Dataset for PDE10A, Compound 461]"
12,4.23,"Cc1ccc2nc(OCc3nc(-c4ccccc4)cn3C)c(Cl)nc2c1 [Roche-Dataset for PDE10A, Compound 463]"
13,824,"Cn1cc(-c2ccccc2)nc1/C=C/c1ncc(Cl)nc1Cl [Roche-Dataset for PDE10A, Compound 465]"
14,23,"CNC(=O)c1cc2[nH]c(-c3ccccc3)nc2cc1NC(=O)c1ccnnc1 [Roche-Dataset for PDE10A, Compound 466]"
15,10000,"Cn1cc(-c2ccccc2)nc1CCc1ccccn1 [Roche-Dataset for PDE10A, Compound 467]"
16,0.91,"Cn1nc(-c2ccc3ccccc3n2)cc1NC(=O)c1c(C(=O)N2CCC2)cnn1C [Roche-Dataset for PDE10A, Compound 468]"
17,0.48,"Cn1ncc(C(=O)N2CCC2)c1C(=O)Nc1ccc2nc(N3CCCC3)nn2c1 [Roche-Dataset for PDE10A, Compound 469]"
18,119,"CN(C)c1nc(OCc2nc3ccccc3n2C)nc2ccc(Cl)cc12 [Roche-Dataset for PDE10A, Compound 470]"
19,933,"O=C(Nc1ccncc1F)c1ccc2cc(-c3ccccc3)nn2c1 [Roche-Dataset for PDE10A, Compound 471]"
20,8.21,"COc1ccccc1-c1cn2c(n1)C[C@H](NC(=O)c1c(C(=O)N(C)C)cnn1C)CC2 [Roche-Dataset for PDE10A, Compound 473]"
21,5.37,"Cc1cnc(C)n2nc(/C=C/c3nc(N4CCCC4)nn3C)nc12 [Roche-Dataset for PDE10A, Compound 474]"
22,8.2,"Cc1cc(C)n2nc(CCc3nc(N4CCCC4)nn3C3CC3)nc2n1 [Roche-Dataset for PDE10A, Compound 475]"
23,9330,"Cc1noc(C(F)(F)F)c1C(=O)Nc1ccn2nc(-c3ccccc3)nc2c1 [Roche-Dataset for PDE10A, Compound 478]"
24,11,"CCn1nccc1C(=O)Nc1cc2nc(-c3ccccc3)[nH]c2cc1C(=O)NC [Roche-Dataset for PDE10A, Compound 482]"

row,IC50 [nM],SMILES
1,848,"Cc1cnc(C)n2nc(CCc3nc(N4CCNC(=O)C4)nn3C)nc12 [Roche-Dataset for PDE10A, Compound 483]"
2,6.66,"O=C(Nc1ccn(CCCC(F)(F)F)n1)c1nc(C2CC2)ccc1Nc1cncnc1 [Roche-Dataset for PDE10A, Compound 485]"
3,58,"CCOC(=O)c1cnn(C)c1C(=O)Nc1ccn2nc(N(C)C3CC3)nc2c1 [Roche-Dataset for PDE10A, Compound 486]"
4,5.27,"CN(C)c1nc2cc(NC(=O)c3c(C(=O)N4CCCC4)cnn3C)ccn2n1 [Roche-Dataset for PDE10A, Compound 489]"
5,5450,"O=C1c2ccccc2C(=O)N1CCc1nc(-c2ccccn2)no1 [Roche-Dataset for PDE10A, Compound 490]"
6,83,"O=C(NCCc1cccc(C(F)(F)F)c1)c1nc(C2CC2)cnc1Nc1cncnc1 [Roche-Dataset for PDE10A, Compound 491]"
7,5.55,"CCN(C)c1nc2cc(NC(=O)c3c(C(=O)N4CCOCC4)cnn3C)ccn2n1 [Roche-Dataset for PDE10A, Compound 493]"
8,7.85,"Cc1ccccc1-c1cn2c(n1)C[C@H](NC(=O)c1c(C(=O)N3CCC3)cnn1C)CC2 [Roche-Dataset for PDE10A, Compound 495]"
9,104,"Cn1ncc(C(=O)N2CCOCC2)c1C(=O)Nc1ccn2nc(-n3ccnc3)nc2c1 [Roche-Dataset for PDE10A, Compound 496]"
10,61,"Cc1c(Cl)cc(Cl)c2nc(CCc3nc4ccccc4n3C)nn12 [Roche-Dataset for PDE10A, Compound 497]"
11,9.67,"O=C(Nc1ccn(CCC(F)(F)F)n1)c1nc(C2CC2)ccc1Nc1cncnc1 [Roche-Dataset for PDE10A, Compound 498]"
12,4170,"Cn1nc(N2CCCC2)nc1CCc1nc2cnc(C#N)cn2n1 [Roche-Dataset for PDE10A, Compound 500]"
13,359,"CCOC(=O)c1cnn(C)c1C(=O)Nc1ccn2nc(N(C)CC)nc2c1 [Roche-Dataset for PDE10A, Compound 502]"
14,0.87,"O=C(Nc1ccnn1-c1ccccc1)c1nc(C2CC2)ccc1Nc1cncnc1 [Roche-Dataset for PDE10A, Compound 507]"
15,30,"O=C(Nc1cnccc1C(=O)N1CC(F)(F)C1)c1nc(C2CC2)ccc1Nc1cncnc1 [Roche-Dataset for PDE10A, Compound 508]"
16,472,"Cc1c(Cl)ccc2nc(CCc3nc4ccc(Cl)c(C)n4n3)nn12 [Roche-Dataset for PDE10A, Compound 512]"
17,20,"CN(C)c1nc2cc(NC(=O)c3c(C(=O)N4CC(F)C4)cnn3C)ccn2n1 [Roche-Dataset for PDE10A, Compound 513]"
18,17,"COc1ncc(C2CC2)nc1C(=O)Nc1ccn2nc(-c3ccccc3)nc2c1 [Roche-Dataset for PDE10A, Compound 514]"
19,767,"Cc1ncc(C)n2nc(CCc3nc(N4CCNCC4)nn3C)nc12 [Roche-Dataset for PDE10A, Compound 515]"
20,1030,"O=C(Nc1ccn2nc(-c3ccccc3)nc2c1)c1cnc(Cl)c(Cl)c1 [Roche-Dataset for PDE10A, Compound 518]"
21,1360,"CSc1ncc(Nc2cncnc2)c(C(=O)Nc2cc(-c3ccccn3)nn2C)n1 [Roche-Dataset for PDE10A, Compound 519]"
22,2.77,"CN(C)c1nc2cc(NC(=O)c3c(C(=O)N4CCC4)cnn3C)ccn2n1 [Roche-Dataset for PDE10A, Compound 520]"
23,17,"Cc1c(Cl)cc(Cl)c2nc(CCc3nc(N4CCCC4)no3)nn12 [Roche-Dataset for PDE10A, Compound 521]"
